Data taken from US9931379B2, “Oxyntomodulin analogs and methods of making and using same” (The Research Foundation for The State University of New York, priority 2015, dated 2018).
Values belong to the compound of their own block, whether it stands above or below them. Starred links: 1 amine or outer side, 2 acyl side, 3 side chain; linkers in the order of their positions; H or OH if unused. Positions of bridges follow the written chain, without caps; N, C: chain ends. Non-standard residues stand in square brackets, D forms with d. Residues, ends and D or L forms follow the SMILES beside them. Biphenyl(4,4'-CH2)2 = c1cc(-c2ccc(C[*:2])cc2)ccc1C[*:1]; X3 = C(=Cc1ccc(C=CC[*:2])cc1)C[*:1]

Key:
GLP-1R = target: T1, GLP-1R (Homo sapiens, UniProt P43220); experiment: CRE-driven luciferase reporter assay, HEK293 cells overexpressing GLP-1R; format: cell-based; settings: for GLP-1R activation, result in words: comparison
T1 construct: expressed in transfected cells
Protocol: (§1) The surviving cells (referred to as CRE-HEK293) were expanded and then transfected with a G418 selective mammalian expression plasmid encoding human GCGR or GLP-1R, followed by geneticin selection (Life technologies, Carlsbad, Calif.). Single-colony stable cell lines expressing both CRE-luciferase and GCGR/GLP-1R were then established for in vitro activity assays.
(§2) HEK293-GCGR-CRE and HEK293-GLP-1R-CRE cells were seeded in a white 384-well plate at a density of 5,000 cells per well and cultured for 24 hours in DMEM with 10% FBS at 37° C. with 5% CO2. Cells were treated with different peptides in a dose dependent manner. After 24 hours, 10 μL of Bright-Glo reagent (Promega, Madison, Wis.) was added to each well and luminescence was determined using an Envision multilabel plate reader (PerkinElmer, Waltham, Mass.). The EC50 of each peptide was calculated using GraphPad Prism 6 software (GraphPad, San Diego, Calif.).

GCGR = target: T2, GCGR (Homo sapiens, UniProt P47871); experiment: CRE-driven luciferase reporter assay, HEK293 cells overexpressing GCGR; format: cell-based; settings: for GCGR activation, result in words: comparison
T2 construct: expressed in transfected cells
Protocol: as §1, §2

CD1 mice = experiment: Oral glucose tolerance test (OGTT); format: in vivo; settings: 10 μg/mice s.c. 4 hours before oral glucose challenge
[1] = compared to its D,L counterpart, peptide 1
[2] = compared to its linear counterpart

T1 sequence (P43220 24-463): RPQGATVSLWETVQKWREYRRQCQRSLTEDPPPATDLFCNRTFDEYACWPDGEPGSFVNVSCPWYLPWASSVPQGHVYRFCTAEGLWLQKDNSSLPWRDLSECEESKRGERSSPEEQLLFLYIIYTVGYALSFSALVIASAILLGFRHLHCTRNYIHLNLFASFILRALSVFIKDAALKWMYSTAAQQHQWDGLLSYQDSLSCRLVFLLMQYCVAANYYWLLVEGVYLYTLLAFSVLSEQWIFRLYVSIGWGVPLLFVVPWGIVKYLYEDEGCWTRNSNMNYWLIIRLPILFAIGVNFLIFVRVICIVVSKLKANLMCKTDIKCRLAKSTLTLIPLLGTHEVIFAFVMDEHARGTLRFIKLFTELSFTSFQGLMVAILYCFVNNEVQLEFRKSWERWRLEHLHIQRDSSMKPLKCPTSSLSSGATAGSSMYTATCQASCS
T2 sequence (P47871 26-477): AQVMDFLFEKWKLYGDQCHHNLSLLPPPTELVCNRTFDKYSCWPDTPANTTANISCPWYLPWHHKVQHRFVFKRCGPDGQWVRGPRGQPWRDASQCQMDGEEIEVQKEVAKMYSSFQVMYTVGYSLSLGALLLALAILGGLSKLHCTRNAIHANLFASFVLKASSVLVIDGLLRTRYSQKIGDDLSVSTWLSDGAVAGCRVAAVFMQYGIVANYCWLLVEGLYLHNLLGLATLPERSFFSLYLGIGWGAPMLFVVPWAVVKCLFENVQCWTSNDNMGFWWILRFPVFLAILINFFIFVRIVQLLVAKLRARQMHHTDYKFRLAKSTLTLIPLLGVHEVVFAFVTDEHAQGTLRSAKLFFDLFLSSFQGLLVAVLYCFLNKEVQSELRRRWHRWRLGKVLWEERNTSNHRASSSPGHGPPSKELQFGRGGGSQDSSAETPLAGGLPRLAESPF

increase in GLP-1R activity (GLP-1R; [1]): roughly 2 fold
increase in GCGR activity (GCGR; [1]): roughly 2 fold
Compound: CC[C@H](C)[C@H](NC(=O)[C@H](CC(N)=O)NC(=O)[C@H](CC(N)=O)NC(=O)[C@H](CCCNC(=N)N)NC(=O)[C@H](CC(N)=O)NC(=O)[C@H](CCCNC(=N)N)NC(=O)[C@H](CCCCN)NC(=O)[C@@H](NC(=O)[C@H](CC(N)=O)NC(=O)[C@H](CCSC)NC(=O)[C@H](CC(C)C)NC(=O)[C@H](Cc1c[nH]c2ccccc12)NC(=O)[C@H](CS)NC(=O)[C@@H](NC(=O)[C@H](Cc1ccccc1)NC(=O)[C@H](CC(=O)O)NC(=O)[C@H](CCC(N)=O)NC(=O)[C@H](C)NC(=O)[C@H](CCCNC(=N)N)NC(=O)[C@H](CS)NC(=O)[C@H](CO)NC(=O)[C@H](CC(=O)O)NC(=O)[C@H](CC(C)C)NC(=O)[C@H](Cc1ccc(O)cc1)NC(=O)[C@H](CCCCN)NC(=O)[C@H](CO)NC(=O)[C@H](Cc1ccc(O)cc1)NC(=O)[C@H](CC(=O)O)NC(=O)[C@H](CO)NC(=O)[C@@H](NC(=O)[C@H](Cc1ccccc1)NC(=O)[C@@H](NC(=O)CNC(=O)[C@H](CCC(N)=O)NC(=O)[C@@H](CO)NC(=O)[C@@H](N)Cc1c[nH]cn1)[C@@H](C)O)[C@@H](C)O)C(C)C)[C@@H](C)O)C(=O)N[C@@H](C)C(N)=O [peptide 4] (H-H[dS]QGTFTSDYSKYLDSCRAQDFVCWLMNTKRNRNNIA-NH2)

GLP-1R activation, result in words (GLP-1R): reduced potency
GCGR activation, result in words (GCGR): more potently than peptide 2
Compound: CC[C@H](C)[C@H](NC(=O)[C@H](CC(N)=O)NC(=O)[C@H](CC(N)=O)NC(=O)[C@H](CCCNC(=N)N)NC(=O)[C@H](CC(N)=O)NC(=O)[C@H](CCCNC(=N)N)NC(=O)[C@H](CCCCN)NC(=O)[C@@H](NC(=O)[C@H](CC(N)=O)NC(=O)[C@H](CCSC)NC(=O)[C@H](CC(C)C)NC(=O)[C@H](Cc1c[nH]c2ccccc12)NC(=O)[C@H](CS)NC(=O)[C@@H](NC(=O)[C@H](Cc1ccccc1)NC(=O)[C@H](CC(=O)O)NC(=O)[C@H](CCC(N)=O)NC(=O)[C@H](C)NC(=O)[C@H](CCCNC(=N)N)NC(=O)[C@@H](CS)NC(=O)[C@H](CO)NC(=O)[C@H](CC(=O)O)NC(=O)[C@H](CC(C)C)NC(=O)[C@H](Cc1ccc(O)cc1)NC(=O)[C@H](CCCCN)NC(=O)[C@H](CO)NC(=O)[C@H](Cc1ccc(O)cc1)NC(=O)[C@H](CC(=O)O)NC(=O)[C@H](CO)NC(=O)[C@@H](NC(=O)[C@H](Cc1ccccc1)NC(=O)[C@@H](NC(=O)CNC(=O)[C@H](CCC(N)=O)NC(=O)[C@@H](CO)NC(=O)[C@@H](N)Cc1c[nH]cn1)[C@@H](C)O)[C@@H](C)O)C(C)C)[C@@H](C)O)C(=O)N[C@@H](C)C(N)=O [peptide 1] (H-H[dS]QGTFTSDYSKYLDS[dC]RAQDFVCWLMNTKRNRNNIA-NH2)

GCGR activation, result in words (GCGR): less potent
Compound: CC[C@H](C)[C@H](NC(=O)[C@H](CC(N)=O)NC(=O)[C@H](CC(N)=O)NC(=O)[C@H](CCCNC(=N)N)NC(=O)[C@H](CC(N)=O)NC(=O)[C@H](CCCNC(=N)N)NC(=O)[C@H](CCCCN)NC(=O)[C@@H](NC(=O)[C@H](CC(N)=O)NC(=O)[C@H](CCSC)NC(=O)[C@H](CC(C)C)NC(=O)[C@H](Cc1c[nH]c2ccccc12)NC(=O)[C@H](CS)NC(=O)[C@@H](NC(=O)[C@H](Cc1ccccc1)NC(=O)[C@H](CC(C)C)NC(=O)[C@H](CCCNC(=N)N)NC(=O)[C@@H](NC(=O)[C@H](C)NC(=O)[C@H](CS)NC(=O)[C@H](CCC(=O)O)NC(=O)[C@H](CC(=O)O)NC(=O)[C@H](CC(C)C)NC(=O)[C@H](Cc1ccc(O)cc1)NC(=O)[C@H](CCCCN)NC(=O)[C@H](CO)NC(=O)[C@H](Cc1ccc(O)cc1)NC(=O)[C@H](CC(=O)O)NC(=O)[C@H](CO)NC(=O)[C@@H](NC(=O)[C@H](Cc1ccccc1)NC(=O)[C@@H](NC(=O)CNC(=O)[C@H](CCC(N)=O)NC(=O)[C@@H](CO)NC(=O)[C@@H](N)Cc1c[nH]cn1)[C@@H](C)O)[C@@H](C)O)C(C)C)[C@@H](C)CC)[C@@H](C)O)C(=O)N[C@@H](C)C(N)=O [peptide 8] (H-H[dS]QGTFTSDYSKYLDECAVRLFICWLMNTKRNRNNIA-NH2)

increase in activity toward GLP-1R on crosslinking (GLP-1R; [2]): 2 fold
increase in activity toward GCGR on crosslinking (GCGR; [2]): 16 fold
Compound: CC[C@H](C)[C@H](NC(=O)[C@H](CC(N)=O)NC(=O)[C@H](CC(N)=O)NC(=O)[C@H](CCCNC(=N)N)NC(=O)[C@H](CC(N)=O)NC(=O)[C@H](CCCNC(=N)N)NC(=O)[C@H](CCCCN)NC(=O)[C@@H](NC(=O)[C@H](CC(N)=O)NC(=O)[C@H](CCSC)NC(=O)[C@H](CC(C)C)NC(=O)[C@H](Cc1c[nH]c2ccccc12)NC(=O)[C@@H]1CSCc2ccc(cc2)-c2ccc(cc2)CSC[C@@H](NC(=O)[C@H](CO)NC(=O)[C@H](CC(=O)O)NC(=O)[C@H](CC(C)C)NC(=O)[C@H](Cc2ccc(O)cc2)NC(=O)[C@H](CCCCN)NC(=O)[C@H](CO)NC(=O)[C@H](Cc2ccc(O)cc2)NC(=O)[C@H](CC(=O)O)NC(=O)[C@H](CO)NC(=O)[C@@H](NC(=O)[C@H](Cc2ccccc2)NC(=O)[C@@H](NC(=O)CNC(=O)[C@H](CCC(N)=O)NC(=O)[C@@H](CO)NC(=O)[C@@H](N)Cc2c[nH]cn2)[C@@H](C)O)[C@@H](C)O)C(=O)N[C@@H](CCCNC(=N)N)C(=O)N[C@@H](C)C(=O)N[C@@H](CCC(N)=O)C(=O)N[C@@H](CC(=O)O)C(=O)N[C@@H](Cc2ccccc2)C(=O)N[C@@H](C(C)C)C(=O)N1)[C@@H](C)O)C(=O)N[C@@H](C)C(N)=O [peptide 3] (H-H[dS]QGTFTSDYSKYLDS[dC]RAQDFVCWLMNTKRNRNNIA-NH2; linker 17-24 via Biphenyl(4,4'-CH2)2)

Compound: exendin-4 [Ex-4, reference compound]
decrease of the area under curve (AUC) of blood glucose (CD1 mice): 30%

EC50 (GLP-1R; Table 2, mean and standard deviation, assay performed three times, read-out: Agonist activity (nM) GLP-1R): 0.45 ± 0.03 nM
EC50 (GCGR; Table 2, mean and standard deviation, assay performed three times, read-out: Agonist activity (nM) GCGR): 1 ± 0.12 nM
Compound: CC[C@H](C)[C@H](NC(=O)[C@H](CC(N)=O)NC(=O)[C@H](CC(N)=O)NC(=O)[C@H](CCCNC(=N)N)NC(=O)[C@H](CC(N)=O)NC(=O)[C@H](CCCNC(=N)N)NC(=O)[C@H](CCCCN)NC(=O)[C@@H](NC(=O)[C@H](CC(N)=O)NC(=O)[C@H](CCSC)NC(=O)[C@H](CC(C)C)NC(=O)[C@H](Cc1c[nH]c2ccccc12)NC(=O)[C@@H]1CSCC=Cc2ccc(cc2)C=CCSC[C@H](NC(=O)[C@H](CCC(=O)O)NC(=O)[C@H](CC(=O)O)NC(=O)[C@H](CC(C)C)NC(=O)[C@H](Cc2ccc(O)cc2)NC(=O)[C@H](CCCCN)NC(=O)[C@H](CO)NC(=O)[C@H](Cc2ccc(O)cc2)NC(=O)[C@H](CC(=O)O)NC(=O)[C@H](CO)NC(=O)[C@@H](NC(=O)[C@H](Cc2ccccc2)NC(=O)[C@@H](NC(=O)CNC(=O)[C@H](CCC(N)=O)NC(=O)[C@@H](CO)NC(=O)[C@@H](N)Cc2c[nH]cn2)[C@@H](C)O)[C@@H](C)O)C(=O)N[C@@H](C)C(=O)N[C@@H](C)C(=O)N[C@@H](CCCCN)C(=O)N[C@@H](CCC(=O)O)C(=O)N[C@@H](Cc2ccccc2)C(=O)N[C@@H]([C@@H](C)CC)C(=O)N1)[C@@H](C)O)C(=O)N[C@@H](C)C(N)=O [compound 12] (H-H[dS]QGTFTSDYSKYLDECAAKEFICWLMNTKRNRNNIA-NH2; linker 17-24 via X3)

GLP-1R activation, result in words (GLP-1R): modest enhancement
GCGR activation, result in words (GCGR): modest enhancement
Compound: CC[C@H](C)[C@H](NC(=O)[C@H](CC(N)=O)NC(=O)[C@H](CC(N)=O)NC(=O)[C@H](CCCNC(=N)N)NC(=O)[C@H](CC(N)=O)NC(=O)[C@H](CCCNC(=N)N)NC(=O)[C@H](CCCCN)NC(=O)[C@@H](NC(=O)[C@H](CC(N)=O)NC(=O)[C@H](CCSC)NC(=O)[C@H](CC(C)C)NC(=O)[C@H](Cc1c[nH]c2ccccc12)NC(=O)[C@H](CS)NC(=O)[C@@H](NC(=O)[C@H](Cc1ccccc1)NC(=O)[C@H](CC(=O)O)NC(=O)[C@H](CCC(N)=O)NC(=O)[C@H](C)NC(=O)[C@H](CCCNC(=N)N)NC(=O)[C@H](CS)NC(=O)[C@H](CCC(=O)O)NC(=O)[C@H](CC(=O)O)NC(=O)[C@H](CC(C)C)NC(=O)[C@H](Cc1ccc(O)cc1)NC(=O)[C@H](CCCCN)NC(=O)[C@H](CO)NC(=O)[C@H](Cc1ccc(O)cc1)NC(=O)[C@H](CC(=O)O)NC(=O)[C@H](CO)NC(=O)[C@@H](NC(=O)[C@H](Cc1ccccc1)NC(=O)[C@@H](NC(=O)CNC(=O)[C@H](CCC(N)=O)NC(=O)[C@@H](CO)NC(=O)[C@@H](N)Cc1c[nH]cn1)[C@@H](C)O)[C@@H](C)O)C(C)C)[C@@H](C)O)C(=O)N[C@@H](C)C(N)=O [peptide 5] (H-H[dS]QGTFTSDYSKYLDECRAQDFVCWLMNTKRNRNNIA-NH2)
